From patent US5248677A, “Biogentic amine uptake inhibitors” (priority 1992, dated 1993)
Structures can show the parent of a compound that is named as a salt.

How the values were obtained:
Type in all cases: biochemical, rat (Male Sprague-Dawley)
[1] = test system: dopamine uptake; test: DA (dopamine) uptake inhibition, synaptosomal preparation (striatum); conditions: rat striatum synaptosomes, 0.1 μM tritiated amine, 37° C., 4 minutes
Protocol: (§1) For the purpose of identifying compounds as biogenic amine uptake inhibitors capable of interacting with the uptake carrier, ligand-carrier binding assays were carried out as an initial sceen.
(§2) Male Sprague-Dawley derived rats, weighing about 180-250 g each (purchased from Sasco Animal Laboratories, Oregon, Wis.) were sacrificed by decapitation. The brains were immediately removed, placed on a chilled glass plate and dissected according to a modification of the method of Glowinski and Iversen (J. Glowinski and L. L. Iversen, J Neurochem, 1966, 13: 655-669). First, the rhombencephalon was separated by a transverse section and discarded. The rest of the brain was divided into two portions by making another transverse section at the level of the optic chiasma. The hypothalamus, which was used for norepinephrine uptake studies, was removed from the posterior part by using the anterior commissure as the horizontal reference point and a line between the posterior hypothalamus and mammillary bodies as the caudal limit. The striatum, which was used for dopamine uptake studies, was also dissected from the posterior portion using the external wall of the lateral ventricle as the internal limit and the corpus collosum as the external limit. The frontal parts of the striatum were removed from the anterior portion of the cerebrum and combined with the striatal tissue from the posterior segment. The cortex, which was used for serotonin uptake studies, was composed of the rest of the anterior portion of the cerebrum and the cortical surfaces removed from the posterior segment. The hypothalamus and the striatum each weighed about 100 mg or slightly less, whereas the cortex weighed up to 800 mg. The tissues were placed in a cold Potter-Elvehjem glass homogenizer with 5 (cortex) or 10 (hypothalamus) or 20 (striatum) volumes of ice-cold 0.32M sucrose, pH 7, and homogenized by hand. The homogenate was centrifuged (on a Multifuge®, American Scientific Products) at 2500 rpm for 10 minutes in a refrigerated room (~4° C.). The supernatant fraction containing the synaptosomes was decanted, mixed thoroughly and kept on crushed ice for use in the uptake studies.
(§3) Uptake studies were conducted according to the method of Snyder and Coyle (S. H. Snyder and J. T. Coyle, J Pharmacol Exp Ther, 1969, 165: 78-86) with minor modifications. Usually a 0.1 mL aliquot of the synaptosomal preparation was incubated in a mixture of 0.75 mL of modified Krebs-Ringerbuffer, 0.05 mL of the drug being tested, and 0.1 mL of a 1 μM solution of the labeled (tritiated) amine (final concentration 0.1 μM), for a total volume of 1 mL. The modified Krebs-Ringer bicarbonate buffer used in these studies contained 118 mM sodium chloride, 4 mM potassium chloride, 1.3 mM calcium chloride, 1.12 mM potassium dihydrogen phosphate, 1.2 mM magnesium sulfate and 24 mM sodium bicarbonate, with the addition of 5 mM glucose, 0.15 mM disodium EDTA, 12.5 μM nialamide and 1 mM ascorbic acid. Uptake was initiated by the addition of the tritiated amine and the mixture was incubated at 37° C. in a Dubnoff Metabolic Shaking Incubator for 4 minutes. A preincubation period was not included since it had been reported that results were similar with and without preincubation of the synaptosomal preparation (G. Vosmer, et al. Biochem Pharmacol, 1980, 24: 2557-2562). Control incubations without the test drug were conducted at 37° C. to determine total uptake and at 0° C. (in a crushed ice bath) to correct for the diffusion of the tritiated amine into the synaptosomes and/or binding.
(§4) Filtration was used to terminate uptake and collect the synaptosomes (C. A. Csernansky, et al. J Pharmacol Methods, 1985, 13: 187-191). In the filtration technique, the incubation mixture was diluted with ice-cold 0.9% aqueous sodium chloride solution and filtered through GF/B glass microfiber filters (Whatman) under reduced pressure. […]

[2] = test system: 5-HT (serotonin) uptake; test: 5-HT (serotonin) uptake inhibition, synaptosomal preparation (cortex); conditions: 5-hydroxytryptamine, rat cortex synaptosomes, 0.1 μM tritiated amine, 37° C., 4 minutes
Protocol: as §1, §2, §3, §4

[3] = test system: norepinephrine uptake; test: NE (norepinephrine) uptake inhibition, synaptosomal preparation (hypothalamus); conditions: rat hypothalamus synaptosomes, 0.1 μM tritiated amine, 37° C., 4 minutes
Protocol: as §1, §2, §3, §4

Row | Compound | IC50 [1] | IC50 [2] | IC50 [3] | IC50 ([1]; hydrochloride) | IC50 ([2]; hydrochloride) | IC50 ([3]; hydrochloride)
1 | CC1C[C@H]2c3ccccc3CC[C@H]2CN1Cc1ccccc1 (relative stereo) [Example 71A, cis-2-Methyl-1,2,3,4,4a,5,6,10b-octahydro-3-phenylmethyl-benz[f]isoquinoline] | 450 nM | 2120 nM | 9.8 nM |  |  | 
2 | CN1CC2c3ccccc3CCC2CCC1Cc1ccccc1 (single isomer, unassigned; (-)) [Example 78, (-) 2-Methyl-1,3,4,5,5a,6,7,11b-octahydro-3-phenylmethyl-2H-naphth[1,2-c]azepine hydrochloride] | 189 nM | < 1000 nM | 9.7 nM |  |  | 
3 | CN1C[C@@H]2c3ccccc3CC[C@@H]2CCC1Cc1ccccc1 (relative stereo) [Example 77, (+)-cis-2-Methyl-1,3,4,5,5a,6,7,11b-octahydro-3-phenylmethyl-2H-naphth[1,2-c]azepine hydrochloride] | 5170 nM | 4170 nM | 190 nM |  |  | 
4 | COc1ccc2c(c1)CCC1C(Cc3ccccc3)NCC21 (mixture of isomers) [Example 1, cis/trans 2,3,3a,4,5,9b-Hexahydro-7-methoxy-3-phenylmethyl-1H-benz[e]isoindole hydrochloride] |  |  |  | 7620 nM | 7290 nM | 524 nM
5 | COc1ccc(C)c2c1CCC1C2CN(C)C1Cc1ccccc1 (stereo not drawn) [Example 38, cis-2,9-Dimethyl-2,3,3a,4,5,9b-hexahydro-6-methoxy-3-phenylmethyl-1H-benz[e]isoindole hydrochloride] | 1330 nM | 3570 nM | 261 nM |  |  | 
6 | Fc1ccc(CC2NCC3c4ccccc4CCC23)cc1 (stereo not drawn) [Example 17, 3-(4-Fluorophenyl)methyl-2,3,3a,4,5,9b-hexahydro-1 H-benz[e]isoindole methanesulfonic acid salt] | 9200 nM | 11000 nM | 665 nM |  |  | 
7 | COc1ccc2c(c1)CCC1C2CN(C)C1Cc1cccc(F)c1 (stereo not drawn) [Example 27, trans-3-(3-Fluorophenyl)methyl-2,3,3a,4,5,9b-hexahydro-7-methoxy-2-methyl-1H-benz[e]isoindole hydrochloride] |  |  | 189 nM | 4590 nM | 2080 nM | 
8 | CN1CC2c3ccccc3CCC2C1Cc1cccc(Cl)c1 (single isomer, unassigned) [Example 47, 3-(3-Chlorophenyl)methyl-2,3,3a,4,5,9b-hexahydro-2-methyl-1H-benz[e]isoindole hydrochloride] | 225 nM | 1260 nM | 41 nM |  |  | 
9 | COc1ccc2c(c1OC)CCC1C2CN(C)C1Cc1ccccc1 (stereo not drawn) [Example 32, cis-6,7-Dimethoxy-2,3,3a,4,5,9b-hexahydro-2-methyl-3-phenylmethyl-1H-benz[e]isoindole hydrochloride] | 169 nM | 12700 nM | 113 nM |  |  | 
10 | CN1CC2c3ccc4c(c3CCC2C1Cc1cccc(F)c1)OCO4 (stereo not drawn) [Example 36, trans-3-(3-Fluorophenyl)methyl-2,3,3a,4,5,9b-hexahydro-2-methyl-6,7-methylenedioxy-1H-benz[e]isoindole methanesulfonic acid salt] | 952 nM | 964 nM | 62 nM |  |  | 
11 | COc1cccc2c1CCC1C(Cc3ccccc3)NCC21 (stereo not drawn) [Example 21, cis-2,3,3a,4,5,9b-Hexahydro-6-methoxy-3-phenylmethyl-1H-benz[e]isoindole methanesulfonic acid salt] | 5490 nM | 13100 nM | 758 nM |  |  | 
12 | CC1C[C@H]2c3ccccc3CC[C@H]2CN1Cc1ccccc1 (relative stereo) [Example 71B, cis-2-Methyl-1,2,3,4,4a,5,6,10b-octahydro-3-phenylmethyl-benz[f]isoquinoline] | 633 nM | 2050 nM | 11.9 nM |  |  | 
13 | CN1CC2c3ccccc3CCC2C1Cc1ccc(F)cc1 (stereo not drawn) [Example 18, cis-3-(4-Fluorophenyl)methyl-2,3,3a,4,5,9b-hexahydro-2-methyl-1H-benz[e]isoindole methanesulfonic acid salt] | 4820 nM | 2910 nM | 241 nM |  |  | 
14 | CN1CC2c3ccccc3CCC2C1Cc1ccccc1 (stereo not drawn) [Example 10, trans-2,3,3a,4,5,9b-Hexahydro-2-methyl-3-phenylmethyl-1H-benz[e]isoindole methanesulfonic acid salt] | 6720 nM | 13500 nM | 454 nM |  |  | 
15 | COc1ccc2c(c1)CCC1C(Cc3cccc(F)c3)NCC21 (stereo not drawn) [Example 26, trans-3-(3-Fluorophenyl)methyl-2,3,3a,4,5,9b-hexahydro-7-methoxy-1H-benz[e]isoindole hydrochloride] | 9040 nM | 2260 nM | 603 nM |  |  | 
16 | Cc1cccc(CC2C3CCc4ccccc4C3CN2C)c1 (stereo not drawn) [Example 12, cis-2,3,3a,4,5,9b-Hexahydro-2-methyl-3-(3-methylphenyl)methyl-1H-benz[e]isoindole hydrochloride] | 571 nM | 1780 nM | 37 nM |  |  | 
17 | CCN1CC2c3cccc(OC)c3CCC2C1Cc1ccccc1 (stereo not drawn) [Example 23, cis-2-Ethyl-2,3,3a,4,5,9 b-hexahydro-6-methoxy-3-phenylmethyl-1H-benz[e]isoindole methanesulfonic acid salt] | 141 nM | 1430 nM | 28 nM |  |  | 
18 | CN1CC2c3ccccc3CCC2C1Cc1cccc(F)c1 (stereo not drawn) [Example 16, cis-3-(3-Fluorophenyl)methyl-2,3,3a,4,5,9b-hexahydro-2-methyl-1H-benz[e]isoindole hydrochloride] | 441 nM | 5450 nM | 50 nM |  |  | 
19 | CN1CC2c3ccccc3CCC2C1Cc1ccccc1 (stereo not drawn) [Example 9, cis-2,3,3a,4,5,9b-Hexahydro-2-methyl-3-phenylmethyl-1H-benz[e]isoindole methanesulfonic acid salt] | 540 nM | 6600 nM | 48 nM |  |  | 
20 | CCN1CC2c3cccc(OC)c3CCC2C1Cc1cccc(F)c1 (stereo not drawn) [Example 25, cis-2-Ethyl-3-(3-fluorophenyl)methyl-2,3,3a,4,5,9b-hexahydro-6-methoxy-1H-benz[e]isoindole hydrochloride] | 197 nM | 1900 nM | 27 nM |  |  | 
21 | COc1ccc2c(c1)CC[C@H]1[C@@H]2CN(C)[C@@H]1Cc1ccccc1 (relative stereo) [Example 8, cis-anti-2,3,3a,4,5,9b-Hexahydro-7-methoxy-2-methyl-3-phenylmethyl-1H-benz[e]isoindole methanesulfonic acid salt] | 4700 nM | 2700 nM | 120 nM |  |  | 
22 | COc1cccc2c1CCC1C2CN(C)C1Cc1cccc(F)c1 (stereo not drawn) [Example 24, cis-3-(3-Fluorophenyl)methyl-2,3,3a,4,5,9b-hexahydro-6-methoxy-2-methyl-1H-benz[e]isoindole hydrochloride] | 170 nM | 2470 nM | 104 nM |  |  | 
23 | CCN1CC2c3ccc(OC)cc3CCC2C1Cc1ccccc1 (stereo not drawn) [Example 3, cis-2-Ethyl-2,3,3a,4,5,9b-hexahydro-7-methoxy-3-phenylmethyl-1H-benz[e]isoindole methanesulfonate salt] | 225 nM | 1400 nM | 18 nM |  |  | 
24 | COc1ccc2c(c1)CCC1CC(Cc3ccccc3)N(C)CC21 (stereo not drawn) [Example 72, cis-8-Methoxy-2-methyl-1,2,3,4,4a,5,6,10b-octahydro-3-phenylmethyl-benz[f]isoquinoline hydrochloride] | 1010 nM | 5750 nM | 64 nM |  |  | 
